Laboratory results published in the NIST ThermoML archive (doi:10.1021/je0499768).

Columns and labels:
[1] = molar heat capacity at saturation pressure
[2] = Crystal
[3] = Molar enthalpy of transition or fusion; settings: Crystal

CCCCCO [pentan-1-ol]
[1]
Settings	molar heat capacity [J/K/mol]
84.35 K, Crystal	65.89
85.06 K, Crystal	66.25
86.86 K, Crystal	67.27
89.74 K, Crystal	68.87
92.58 K, Crystal	70.39
94.72 K, Crystal	71.43
95.39 K, Crystal	71.74
95.42 K, Crystal	71.88
97.19 K, Crystal	72.64
98.27 K, Crystal	73.33
100.1 K, Crystal	74.14
101.12 K, Crystal	74.67
102.99 K, Crystal	75.73
103.99 K, Crystal	76.36
105.87 K, Crystal	77.16
106.86 K, Crystal	77.84
108.76 K, Crystal	78.64
109.74 K, Crystal	79.23
111.65 K, Crystal	79.96
112.62 K, Crystal	80.53
114.54 K, Crystal	81.27
115.51 K, Crystal	81.81
117.45 K, Crystal	82.55
118.41 K, Crystal	83.11
120.35 K, Crystal	83.59
121.31 K, Crystal	84.26
123.26 K, Crystal	85.21
124.22 K, Crystal	85.78
126.17 K, Crystal	86.52
127.13 K, Crystal	87.05
129.09 K, Crystal	87.81
130.04 K, Crystal	88.35
132 K, Crystal	89.11
132.96 K, Crystal	89.63
134.92 K, Crystal	90.35
135.88 K, Crystal	90.9
137.85 K, Crystal	91.65
138.8 K, Crystal	92.19
140.77 K, Crystal	92.89
141.73 K, Crystal	93.48
143.7 K, Crystal	94.19
144.65 K, Crystal	94.77
146.63 K, Crystal	95.55
147.58 K, Crystal	96.12
149.56 K, Crystal	96.87
150.51 K, Crystal	97.45
152.49 K, Crystal	98.21
153.44 K, Crystal	98.8
155.42 K, Crystal	99.58
156.38 K, Crystal	100.2
158.36 K, Crystal	101.02
159.31 K, Crystal	101.61
161.29 K, Crystal	102.48
162.24 K, Crystal	103.05
164.23 K, Crystal	103.98
165.18 K, Crystal	104.56
167.16 K, Crystal	105.55
168.11 K, Crystal	106.11
170.08 K, Crystal	107.17
171.04 K, Crystal	107.72
173.01 K, Crystal	108.87
173.97 K, Crystal	109.43
175.94 K, Crystal	110.7
176.89 K, Crystal	111.3
178.85 K, Crystal	112.7
179.8 K, Crystal	113.33
181.73 K, Crystal	115.01
182.67 K, Crystal	115.64
184.57 K, Crystal	118.07
185.5 K, Crystal	118.77
187.36 K, Crystal	123.84
188.28 K, Crystal	124.56
198.65 K, Liquid	163.65
199.38 K, Liquid	163.9
200.99 K, Liquid	163.99
201.72 K, Liquid	164.4
203.32 K, Liquid	164.43
204.05 K, Liquid	164.85
205.65 K, Liquid	164.91
206.37 K, Liquid	165.31
207.96 K, Liquid	165.4
208.68 K, Liquid	165.79
210.27 K, Liquid	165.93
210.99 K, Liquid	166.35
212.58 K, Liquid	166.46
213.29 K, Liquid	166.86
214.87 K, Liquid	167.08
215.58 K, Liquid	167.46
217.16 K, Liquid	167.65
217.86 K, Liquid	168.06
219.44 K, Liquid	168.24
220.14 K, Liquid	168.68
221.71 K, Liquid	168.88
222.41 K, Liquid	169.28
223.98 K, Liquid	169.49
224.67 K, Liquid	169.98
226.24 K, Liquid	170.19
226.92 K, Liquid	170.74
228.49 K, Liquid	170.97
229.17 K, Liquid	171.45
230.73 K, Liquid	171.69
231.4 K, Liquid	172.08
232.96 K, Liquid	172.37
233.63 K, Liquid	172.91
235.19 K, Liquid	173.18
235.85 K, Liquid	173.67
237.41 K, Liquid	174
238.06 K, Liquid	174.45
239.61 K, Liquid	174.8
240.27 K, Liquid	175.24
241.81 K, Liquid	175.57
242.46 K, Liquid	176.08
244 K, Liquid	176.53
244.65 K, Liquid	177.02
246.19 K, Liquid	177.41
246.83 K, Liquid	177.9
248.36 K, Liquid	178.37
249 K, Liquid	178.81
250.53 K, Liquid	179.33
251.16 K, Liquid	179.81
252.69 K, Liquid	180.35
253.31 K, Liquid	180.73
254.84 K, Liquid	180.78
255.46 K, Liquid	181.29
256.98 K, Liquid	181.89
257.6 K, Liquid	182.33
259.12 K, Liquid	182.97
259.72 K, Liquid	183.42
261.25 K, Liquid	184.11
261.84 K, Liquid	184.56
263.36 K, Liquid	185.17
263.95 K, Liquid	185.84
265.47 K, Liquid	186.38
266.05 K, Liquid	186.93
267.57 K, Liquid	187.55
268.14 K, Liquid	188.12
269.66 K, Liquid	188.85
270.23 K, Liquid	189.24
271.74 K, Liquid	190.03
272.3 K, Liquid	190.52
273.81 K, Liquid	190.93
274.36 K, Liquid	191.79
275.87 K, Liquid	192.5
276.41 K, Liquid	193.06
277.92 K, Liquid	193.85
278.46 K, Liquid	194.4
279.97 K, Liquid	195.18
280.49 K, Liquid	195.74
282 K, Liquid	196.61
282.51 K, Liquid	197.04
284.02 K, Liquid	197.96
284.53 K, Liquid	198.45
286.03 K, Liquid	199.37
286.53 K, Liquid	199.91
288.04 K, Liquid	200.78
288.52 K, Liquid	201.35
290.03 K, Liquid	202.3
290.5 K, Liquid	202.81
292.01 K, Liquid	203.82
292.48 K, Liquid	204.11
293.99 K, Liquid	205.24
294.44 K, Liquid	205.79
295.95 K, Liquid	206.87
296.39 K, Liquid	207.42
297.91 K, Liquid	208.52
298.34 K, Liquid	208.88
299.85 K, Liquid	210.01
300.27 K, Liquid	210.28
300.3 K, Liquid	209.4
300.6 K, Liquid	209.89
300.81 K, Liquid	210.54
301.09 K, Liquid	210.46
301.72 K, Liquid	211.03
302.2 K, Liquid	211.81
303.67 K, Liquid	212.74
304.12 K, Liquid	213.39
305.6 K, Liquid	214.44
306.03 K, Liquid	215.06
307.52 K, Liquid	216.02
307.94 K, Liquid	216.66
309.43 K, Liquid	217.84
309.83 K, Liquid	218.39
311.32 K, Liquid	219.47
311.72 K, Liquid	219.98
313.21 K, Liquid	221.03
313.59 K, Liquid	221.54
315.09 K, Liquid	222.83
315.46 K, Liquid	223.3
316.96 K, Liquid	224.55
317.31 K, Liquid	224.93
318.82 K, Liquid	226.26
319.16 K, Liquid	226.53
320.67 K, Liquid	228
320.99 K, Liquid	228.31
322.52 K, Liquid	229.67
322.82 K, Liquid	229.96
324.36 K, Liquid	231.42
324.65 K, Liquid	231.73
326.19 K, Liquid	233.09
326.46 K, Liquid	233.41
328.01 K, Liquid	234.81
328.27 K, Liquid	235
329.82 K, Liquid	236.6
330.07 K, Liquid	236.82
331.62 K, Liquid	238.27
331.85 K, Liquid	238.73
333.42 K, Liquid	239.94
333.63 K, Liquid	240.3
335.2 K, Liquid	241.58
335.4 K, Liquid	241.97
336.98 K, Liquid	243.24
337.16 K, Liquid	243.65
338.75 K, Liquid	244.92
338.92 K, Liquid	245.3
340.51 K, Liquid	246.6
340.66 K, Liquid	246.9
342.27 K, Liquid	248.02
342.4 K, Liquid	248.57
344.02 K, Liquid	249.71
344.13 K, Liquid	250.3
345.76 K, Liquid	251.26
345.85 K, Liquid	252.05
347.5 K, Liquid	252.83
347.57 K, Liquid	253.58
349.23 K, Liquid	254.25
349.27 K, Liquid	255.13
350.95 K, Liquid	255.52
350.97 K, Liquid	256.62
352.66 K, Liquid	258.17
352.67 K, Liquid	256.89
354.35 K, Liquid	259.96
354.38 K, Liquid	259.82
356.02 K, Liquid	261.44
356.07 K, Liquid	261.38
357.7 K, Liquid	262.72
357.76 K, Liquid	262.85
359.36 K, Liquid	264.29
359.43 K, Liquid	264.36
361.02 K, Liquid	265.62
361.1 K, Liquid	265.85
362.67 K, Liquid	266.89
362.77 K, Liquid	267.17
364.32 K, Liquid	268.43
364.43 K, Liquid	268.78
365.96 K, Liquid	269.86
366.08 K, Liquid	270.13
367.59 K, Liquid	270.92
367.73 K, Liquid	271.33
369.23 K, Liquid	271.93
369.37 K, Liquid	272.76
370.86 K, Liquid	272.95
371.01 K, Liquid	274.05
372.64 K, Liquid	275.14
374.27 K, Liquid	276.38
375.89 K, Liquid	277.43
377.52 K, Liquid	278.66
379.14 K, Liquid	279.32
380.76 K, Liquid	280.36

Settings	Molar enthalpy of transition or fusion [kcal/mol]	Triple point temperature [K]
[2]	–	195.6
[3]	2.512	–

CCCO [propan-1-ol]
[1], Glass
Settings	molar heat capacity [J/K/mol]
84.71 K	55.24
86.52 K	56.57
89.38 K	58.64
92.19 K	61.1
94.96 K	66.41

Settings	Molar enthalpy of transition or fusion [kcal/mol]	Triple point temperature [K]
[2]	–	148.71
[3]	1.291	–
